Test results as given in ChEMBL document CHEMBL5303573, “Mapping human microbiome drug metabolism by gut bacteria and their genes” (Nature, 2019).

Key:
[1] = The drug is tested on Collinsella aerofaciens strain: ATCC25986 for biotransformation. The drug concentrations were measured before and after a 12-h incubation by liquid-chromatography-coupled mass spectrometry (LC–MS); settings: 2 µM
[2] = The drug is tested on Collinsella intestinalis strain: DSM13280 for biotransformation. The drug concentrations were measured before and after a 12-h incubation by liquid-chromatography-coupled mass spectrometry (LC–MS); settings: 2 µM
[3] = The drug is tested on Bacteroides cellulosilyticus strain: DSM14838 for biotransformation. The drug concentrations were measured before and after a 12-h incubation by liquid-chromatography-coupled mass spectrometry (LC–MS); settings: 2 µM
[4] = The drug is tested on Bacteroides dorei strain: DSM17855 for biotransformation. The drug concentrations were measured before and after a 12-h incubation by liquid-chromatography-coupled mass spectrometry (LC–MS); settings: phocaeicola dorei, 2 µM
[5] = The drug is tested on Bacteroides fragilis strain: HMW610 for biotransformation. The drug concentrations were measured before and after a 12-h incubation by liquid-chromatography-coupled mass spectrometry (LC–MS); settings: 2 µM
[6] = The drug is tested on Bacteroides fragilis strain: ATCC43859 for biotransformation. The drug concentrations were measured before and after a 12-h incubation by liquid-chromatography-coupled mass spectrometry (LC–MS); settings: 2 µM
[7] = The drug is tested on Bacteroides pectinophilus strain: ATCC43243 for biotransformation. The drug concentrations were measured before and after a 12-h incubation by liquid-chromatography-coupled mass spectrometry (LC–MS); settings: 2 µM
[8] = The drug is tested on Odoribacter splanchnicus strain: fecal isolate for biotransformation. The drug concentrations were measured before and after a 12-h incubation by liquid-chromatography-coupled mass spectrometry (LC–MS); settings: 2 µM
[9] = The drug is tested on Blautia hansenii strain: DSM20583 for biotransformation. The drug concentrations were measured before and after a 12-h incubation by liquid-chromatography-coupled mass spectrometry (LC–MS); settings: 2 µM
[10] = The drug is tested on Clostridium scindens strain: ATCC35704 for biotransformation. The drug concentrations were measured before and after a 12-h incubation by liquid-chromatography-coupled mass spectrometry (LC–MS); settings: 2 µM
[11] = The drug is tested on Coprococcus comes strain: ATCC27758 for biotransformation. The drug concentrations were measured before and after a 12-h incubation by liquid-chromatography-coupled mass spectrometry (LC–MS); assay type: ADME; parameters: dose 2 uM, timepoint 0 vs 12 hours; settings: 2 µM
[12] = The drug is tested on Enterococcus faecalis strain: V583 for biotransformation. The drug concentrations were measured before and after a 12-h incubation by liquid-chromatography-coupled mass spectrometry (LC–MS); settings: 2 µM
[13] = The drug is tested on Eubacterium hallii strain: DSM3353 for biotransformation. The drug concentrations were measured before and after a 12-h incubation by liquid-chromatography-coupled mass spectrometry (LC–MS); settings: anaerobutyricum hallii, 2 µM
[14] = The drug is tested on Eubacterium rectale strain: ATCC33656 for biotransformation. The drug concentrations were measured before and after a 12-h incubation by liquid-chromatography-coupled mass spectrometry (LC–MS); settings: agathobacter rectalis, 2 µM
[15] = The drug is tested on Eubacterium ventriosum strain: ATCC27560 for biotransformation. The drug concentrations were measured before and after a 12-h incubation by liquid-chromatography-coupled mass spectrometry (LC–MS); assay type: ADME; parameters: dose 2 uM, timepoint 0 vs 12 hours; settings: 2 µM
[16] = The drug is tested on Ruminococcus lactaris strain: ATCC29176 for biotransformation. The drug concentrations were measured before and after a 12-h incubation by liquid-chromatography-coupled mass spectrometry (LC–MS); settings: 2 µM
[17] = The drug is tested on Escherichia coli strain: BW25113 for biotransformation. The drug concentrations were measured before and after a 12-h incubation by liquid-chromatography-coupled mass spectrometry (LC–MS); settings: 2 µM
[18] = segatella copri, 12 h, 2 µM
Description: The drug is tested on Prevotella copri strain: DSM18205 for biotransformation. The drug concentrations were measured before and after a 12-h incubation by liquid-chromatography-coupled mass spectrometry (LC–MS)

[19] = enterocloster bolteae, 12 h, 2 µM
Description: The drug is tested on Clostridium bolteae strain: ATCCBAA-613 for biotransformation. The drug concentrations were measured before and after a 12-h incubation by liquid-chromatography-coupled mass spectrometry (LC–MS)

| Compound | Bacterial Biotransformation [1] | Bacterial Biotransformation [2] | Bacterial Biotransformation [3] | Bacterial Biotransformation [4] | Bacterial Biotransformation [5] | Bacterial Biotransformation [6] | Bacterial Biotransformation [7] | Bacterial Biotransformation [8] | Bacterial Biotransformation [9] | Bacterial Biotransformation [10] | Bacterial Biotransformation [11] | Bacterial Biotransformation [12] | Bacterial Biotransformation [13] | Bacterial Biotransformation [14] | Bacterial Biotransformation [15] | Bacterial Biotransformation [16] | Bacterial Biotransformation [17] | Bacterial Biotransformation [18] | Bacterial Biotransformation [19] |
| --- | --- | --- | --- | --- | --- | --- | --- | --- | --- | --- | --- | --- | --- | --- | --- | --- | --- | --- | --- |
| CC(=O)OCC(=O)[C@@]1(OC(C)=O)[C@@H](C)C[C@H]2[C@@H]3C[C@H](F)C4=CC(=O)C=C[C@]4(C)[C@@]3(F)[C@@H](O)C[C@@]21C [DIFLORASONE DIACETATE] | Compound metabolized | Compound NOT metabolized | Compound metabolized | Compound metabolized | Compound metabolized | Compound metabolized | Compound NOT metabolized | Compound metabolized | Compound metabolized | Compound NOT metabolized | Compound NOT metabolized | Compound NOT metabolized | Compound NOT metabolized | Compound NOT metabolized | Compound NOT metabolized | Compound NOT metabolized | Compound metabolized | Compound metabolized | Compound metabolized |
| COc1ccc([C@@H]2Sc3ccccc3N(CCN(C)C)C(=O)[C@@H]2OC(C)=O)cc1 [DILTIAZEM] | Compound metabolized | Compound NOT metabolized | Compound metabolized | Compound metabolized | Compound NOT metabolized | Compound NOT metabolized | Compound NOT metabolized | Compound NOT metabolized | Compound metabolized | Compound NOT metabolized | Compound metabolized | Compound NOT metabolized | Compound metabolized | Compound NOT metabolized | Compound NOT metabolized | Compound metabolized | Compound NOT metabolized | Compound NOT metabolized | Compound NOT metabolized |
| CC(C)(C)NC(=O)[C@H]1CC[C@H]2[C@@H]3CC[C@H]4NC(=O)C=C[C@]4(C)[C@H]3CC[C@]12C [FINASTERIDE] | Compound NOT metabolized | Compound NOT metabolized | Compound NOT metabolized | Compound metabolized | Compound metabolized | Compound metabolized | Compound NOT metabolized | Compound metabolized | Compound NOT metabolized | Compound metabolized | Compound NOT metabolized | Compound NOT metabolized | Compound NOT metabolized | Compound NOT metabolized | Compound NOT metabolized | Compound NOT metabolized | Compound NOT metabolized | Compound NOT metabolized | Compound NOT metabolized |
| COc1ccc2c3c1O[C@H]1C[C@@H](O)C=C[C@@]31CCN(C)C2 [GALANTAMINE] | Compound NOT metabolized | Compound NOT metabolized | Compound NOT metabolized | Compound NOT metabolized | Compound metabolized | Compound metabolized | Compound NOT metabolized | Compound NOT metabolized | Compound NOT metabolized | Compound NOT metabolized | Compound NOT metabolized | Compound metabolized | Compound NOT metabolized | – | Compound NOT metabolized | Compound NOT metabolized | Compound NOT metabolized | Compound metabolized | Compound NOT metabolized |
| COc1ccc2c(c1)c(CC(=O)O)c(C)n2C(=O)c1ccc(Cl)cc1 [INDOMETHACIN] | Compound NOT metabolized | Compound NOT metabolized | Compound metabolized | Compound metabolized | Compound NOT metabolized | Compound metabolized | Compound metabolized | Compound metabolized | Compound NOT metabolized | Compound NOT metabolized | Compound NOT metabolized | Compound NOT metabolized | Compound NOT metabolized | Compound NOT metabolized | Compound metabolized | – | Compound metabolized | Compound metabolized | Compound metabolized |
| CCC(C)n1ncn(-c2ccc(N3CCN(c4ccc(OCC5COC(Cn6cncn6)(c6ccc(Cl)cc6Cl)O5)cc4)CC3)cc2)c1=O (configuration not stated) [ITRACONAZOLE] | Compound NOT metabolized | Compound NOT metabolized | Compound NOT metabolized | Compound NOT metabolized | Compound NOT metabolized | Compound NOT metabolized | Compound NOT metabolized | Compound NOT metabolized | Compound metabolized | Compound NOT metabolized | Compound NOT metabolized | Compound NOT metabolized | Compound NOT metabolized | Compound NOT metabolized | Compound NOT metabolized | Compound NOT metabolized | Compound NOT metabolized | Compound NOT metabolized | Compound NOT metabolized |
| COc1ccc2cc([C@H](C)C(=O)O)ccc2c1 [NAPROXEN] | Compound NOT metabolized | Compound NOT metabolized | Compound NOT metabolized | Compound NOT metabolized | Compound metabolized | Compound metabolized | Compound NOT metabolized | Compound NOT metabolized | Compound NOT metabolized | Compound NOT metabolized | Compound NOT metabolized | Compound NOT metabolized | Compound NOT metabolized | Compound NOT metabolized | Compound NOT metabolized | Compound NOT metabolized | Compound NOT metabolized | – | Compound NOT metabolized |
| Fc1ccc([C@@H]2CCNC[C@H]2COc2ccc3c(c2)OCO3)cc1 [PAROXETINE] | Compound NOT metabolized | Compound NOT metabolized | Compound metabolized | – | Compound NOT metabolized | Compound NOT metabolized | Compound metabolized | Compound NOT metabolized | Compound NOT metabolized | Compound NOT metabolized | Compound NOT metabolized | Compound NOT metabolized | Compound NOT metabolized | – | Compound NOT metabolized | Compound NOT metabolized | Compound NOT metabolized | Compound NOT metabolized | Compound metabolized |
